Assay results reported in patent US20250170090A1, “METHOD FOR PREVENTING OR TREATING DISEASE OR DISORDER ASSOCIATED WITH ANTINEOPLASTIC AGENT” (ONQUALITY PHARMACEUTICALS CHINA LTD., priority 2022, published 2025).

Tests used:
[1] = tested on: hand-foot syndrome caused by macromolecular anti-tumor agents; test: Prevention of hand-foot syndrome caused by macromolecular protein inhibitors in rats (Table 3); type: in vivo
[2] = tested on: hand-foot syndrome caused by anti-tumor agents; test: Treatment of established hand-foot syndrome caused by anti-tumor agents in rats (Table 4); type: in vivo
Procedure: After the rats (about 200 g) were fed and adapted for one week, the rats were divided into groups of 10 rats for gavage administration experiment. The anti-tumor agent was dissolved in a mixed solution of Cremophor EL:ethanol=1:1, and diluted with PBS to the required concentration (diluted about 3 times with PBS solution) before gavage. […] Specific experimental procedures followed those outlined in the prevention experiment. […] Table 4 lists the animal experiments using various anti-tumor agents and NO-NSAID ointment, as well as the corresponding experimental results (where the value in the control rate column=the incidence rate of hand-foot syndrome in the blank group−the incidence rate of hand-foot syndrome in the treatment group).

[3] = tested on: human intestinal epithelial cells (FHs 74 Int); test: CCK-8 cell viability: alleviation of proliferative toxicity of anti-tumor agents on FHs 74 Int (Table 8-4); type: cell-based; settings: NO-NSAID 100 μM
Procedure: (§1) Experiments were conducted using various epithelial cells: Examples 47-51 used human immortalized keratinocytes (HaCaT) with corresponding results in Table 8-1; Examples 52-56 used human oral keratinocytes (HOK) with results in Table 8-2; Examples 57-61 used gastric epithelial cells (GES-1) with results in Table 8-3; Examples 62-66 used human intestinal epithelial cells (FHs 74 Int) with results in Table 8-4.
(§2) The cultured cells were digested the suspended, counted, and seed into a 96-well plate with 5,000-10,000 cells per well. The wells are divided into the following groups: blank control group, anti-tumor agent group, anti-tumor agent+NO-NSAID group, anti-tumor agent solvent group, NO-NSAID solvent control group. Wherein each well of each group contained a basic medium, and the final liquid volume contained in each well was about 100 μL. The grouping situation was as follows: • 1) Blank control group: no solution was added except normally replacing the medium; • 2) Anti-tumor agent group: added the anti-tumor agent solution (the final concentration was shown in Table 8-1 to Table 8-4, the solvent of the anti-tumor agent solution was DMSO); • 3) Anti-tumor agent+NO-NSAID group: added the anti-tumor agent solution and the NO-NSAID solution (the final concentrations of anti-tumor agent and NO-NSAID were shown in Table 8-1 to Table 8-4, and according to the solubility of NO-NSAID, the solvent of NO-NSAID solution was selected as ethanol or sterile water, and minor volume differences in each group were adjusted by added the corresponding solvent); • 4) Anti-tumor agent solvent group: an equal volume of DMSO as contained in the corresponding anti-tumor agent solution in Group 2) was added; • 5) NO-NSAID control group: the same volume and type of solvent (for example, ethanol or sterile water) corresponding to the NO-NSAID contained in group 3) was added.
(§3) The anti-tumor agent solvent group was not involved in data processing and was only used as a reference for evaluating experimental system error. The NO-NSAID solvent control group was used for data correction to eliminate the influence of the solvent on the results.
(§4) After culturing for 24-48 hours, the Cell Counting Kit-8 (CCK-8) detection kit (C0037, Shanghai Beyotime Biotechnology Co., Ltd., Beyotime Biotechnology) was used to determine the cell viability. This allows for the calculation of the proliferative toxicity of anti-tumor agent on cell and the mitigating effect of NO-NSAID on proliferative toxicity. The results were statistically analyzed and plotted using GraphPad Prism 6.0 software and t test.

[4] = tested on: chemotherapy-induced hand-foot syndrome; test: Prevention of chemotherapy-induced hand-foot syndrome in rat models (Table 5); type: in vivo, SD rats
Procedure: Rat animal model was constructed. After several days, the rats develop hand-foot syndrome in their paws. After one week of acclimatization (about 200 g), the SD rats are divided into groups of 10 rats each, followed by gavage administration experiment. The chemotherapy drugs were dissolved, and each rat was given a gavage dose of 1 mL/100 g. After gavage, the rats were fixed with a fixed cylinder. NO-NSAID ointment was applied to the paws of the rats in the medication group, and blank ointment was applied to the paws of the rats in the blank group (as blank control). […] Table 5 lists the animal experimental combinations of chemotherapy drugs and NO-NSAID ointment, as well as the corresponding experimental results (where the value in the control rate column=the incidence rate of hand-foot syndrome in the blank group−the incidence rate of hand-foot syndrome in the treatment group).

[5] = tested on: gastric epithelial cells (GES-1); test: CCK-8 cell viability: alleviation of proliferative toxicity of anti-tumor agents on GES-1 (Table 8-3); type: cell-based, human; settings: NO-NSAID 100 μM
Procedure: as §1, §2, §3, §4

[6] = tested on: human immortalized keratinocytes (HaCaT); test: CCK-8 cell viability: alleviation of proliferative toxicity of anti-tumor agents on HaCaT (Table 8-1); type: cell-based; settings: NO-NSAID 100 μM, percentage increase in viable cells vs anti-tumor agent alone
Procedure: as §1, §2, §3, §4

[7] = tested on: human oral keratinocytes (HOK); test: CCK-8 cell viability: alleviation of proliferative toxicity of anti-tumor agents on HOK (Table 8-2); type: cell-based; settings: NO-NSAID 100 μM
Procedure: as §1, §2, §3, §4

**Q.** Which results are given for `CC(=O)Oc1ccccc1C(=O)Oc1cccc(CO[N+](=O)[O-])c1` [Compound A2]?
**A.** Control rate ([1]; Bevacizumab, 5-FU combination, tail vein injection once a week, ointment 1% wt, Days 18): 33.33%; Control rate ([1]; Bevacizumab, 5-FU combination, tail vein injection once a week, ointment 5% wt, Days 18): 50.00%; Control rate ([1]; Ramucirumab combined with paclitaxel, intraperitoneal injection once a week, ointment 1% wt, Days 23): 33.33%; Control rate ([1]; Ramucirumab combined with paclitaxel, intraperitoneal injection once a week, ointment 5% wt, Days 23): 66.67%; Response rate ([2]; Apatinib 105 mg/kg once every two days, ointment 3% wt, Days 7): 33.33%; Response rate ([2]; Cabozantinib 50 mg/kg once every two days, ointment 1% wt, Days 13): 14.29%; Response rate ([2]; Erdafitinib 45 mg/kg once every two days, ointment 3% wt, Days 13): 28.57%; Response rate ([2]; Fruquintinib 40 mg/kg once every two days, ointment 3% wt, Days 8): 50.00%; Response rate ([2]; Lenvatinib 65 mg/kg once a day, ointment 3% wt, Days 9): 33.33%; Response rate ([2]; Regorafenib 90 mg/kg once every two days, ointment 1% wt, Days 7): 33.33%; Response rate ([2]; Sorafenib 80 mg/kg once every two days, ointment 2.00% wt, Days 5): 20.00%; Response rate ([2]; Sunitinib 120 mg/kg once every two days, ointment 3% wt, Days 7): 33.33%; Response rate % (average) ([3]; Afatinib (10 μM)): 22%; Response rate % (average) ([3]; Cabozantinib (5 μM)): 26%; Response rate % (average) ([3]; Dabrafenib (10 μM)): 13%; Response rate % (average) ([3]; Everolimus (5 μM)): 27%; Response rate % (average) ([3]; Infigratinib (15 μM)): 20%; Response rate % (average) ([3]; Lapatinib (5 μM)): 20%; Response rate % (average) ([3]; Lenvatinib (10 μM)): 26%; Response rate % (average) ([3]; Olmutinib (10 μM)): 25%; Response rate % (average) ([3]; Regorafenib (5 μM)): 21%; Response rate % (average) ([3]; Selumetinib (5 μM)): 27%; Response rate % (average) ([3]; Sorafenib (5 μM)): 26%; Response rate % (average) ([3]; Sunitinib (5 μM)): 36%; Control rate ([4]; Acelarin 130 mg/kg twice a week, ointment 1% wt, Days 30): 28.57%; Control rate ([4]; Capecitabine 4000 mg/kg once a day, ointment 2% wt, Days 40): 22.22%; Control rate ([4]; Capecitabine 4000 mg/kg once a day, ointment 5% wt, Days 40): 28.57%; Control rate ([4]; Capecitabine 4000 mg/kg once a day, ointment 10% wt, Days 40): 33.33%; Control rate ([4]; Cytarabine 120 mg/kg twice a day, ointment 2% wt, Days 30): 14.29%; Control rate ([4]; Cytarabine 120 mg/kg twice a day, ointment 5% wt, Days 30): 42.86%; Response rate % (average) ([5]; Afatinib (10 μM)): 3%; Response rate % (average) ([5]; Cabozantinib (5 μM)): 27%; Response rate % (average) ([5]; Dabrafenib (10 μM)): 25%; Response rate % (average) ([5]; Everolimus (5 μM)): 31%; Response rate % (average) ([5]; Infigratinib (15 μM)): 39%; Response rate % (average) ([5]; Lapatinib (5 μM)): 16%; Response rate % (average) ([5]; Lenvatinib (10 μM)): 23%; Response rate % (average) ([5]; Olmutinib (10 μM)): 30%; Response rate % (average) ([5]; Regorafenib (5 μM)): 18%; Response rate % (average) ([5]; Selumetinib (5 μM)): 17%; Response rate % (average) ([5]; Sorafenib (5 μM)): 24%; Response rate % (average) ([5]; Sunitinib (5 μM)): 18%; Response rate % (average) ([6]; Afatinib (10 μM)): 20%; Response rate % (average) ([6]; Cabozantinib (5 μM)): 36%; Response rate % (average) ([6]; Dabrafenib (10 μM)): 21%; Response rate % (average) ([6]; Everolimus (5 μM)): 7%; Response rate % (average) ([6]; Infigratinib (15 μM)): 16%; Response rate % (average) ([6]; Lapatinib (5 μM)): 18%; Response rate % (average) ([6]; Lenvatinib (10 μM)): 1%; Response rate % (average) ([6]; Olmutinib (10 μM)): 34%; Response rate % (average) ([6]; Regorafenib (5 μM)): 26%; Response rate % (average) ([6]; Selumetinib (5 μM)): 18%; Response rate % (average) ([6]; Sorafenib (5 μM)): 33%; Response rate % (average) ([6]; Sunitinib (5 μM)): 31%; Response rate % (average) ([7]; Afatinib (10 μM)): 24%; Response rate % (average) ([7]; Cabozantinib (5 μM)): 22%; Response rate % (average) ([7]; Dabrafenib (10 μM)): 22%; Response rate % (average) ([7]; Everolimus (5 μM)): 8%; Response rate % (average) ([7]; Infigratinib (15 μM)): 21%; Response rate % (average) ([7]; Lapatinib (5 μM)): −8%; Response rate % (average) ([7]; Lenvatinib (10 μM)): 19%; Response rate % (average) ([7]; Olmutinib (10 μM)): 32%; Response rate % (average) ([7]; Regorafenib (5 μM)): 3%; Response rate % (average) ([7]; Selumetinib (5 μM)): 13%; Response rate % (average) ([7]; Sorafenib (5 μM)): 31%; Response rate % (average) ([7]; Sunitinib (5 μM)): 27%
